# Results published in PubChem BioAssay (NCI).
# Values joined by “and” are separate entries in the source; they are usually repeats but may differ in a detail not shown here. Equal entries are not always repeated.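 1) Cells in 96-well plates. 2) Compound, 48 h, 5 concentrations. 3) Linear interpolation between surrounding doses. 4) Unreached endpoint = highest concentration. Abbreviation: GI50, concentration required for 50% inhibition of growth. Definition used: TGI = concentration required for complete inhibition of growth.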
# Tests used:
# Assay in all cases: inhibition of tumour cell growth, NCI panel, 48 h
# HCT-116 colon = tested on: HCT-116 colon
# MALME-3M melanoma = tested on: MALME-3M melanoma
# MDA-MB-231 breast = tested on: MDA-MB-231 breast
# OVCAR-4 ovarian = tested on: OVCAR-4 ovarian
# OVCAR-5 ovarian = tested on: OVCAR-5 ovarian
# RXF 393 renal = tested on: RXF 393 renal
# SF-268 CNS = tested on: SF-268 CNS
# SK-OV-3 ovarian = tested on: SK-OV-3 ovarian
# UACC-62 melanoma = tested on: UACC-62 melanoma
# UO-31 renal = tested on: UO-31 renal
Structure (SMILES),GI50 (HCT-116 colon),TGI (HCT-116 colon) [µM],GI50 (MALME-3M melanoma),TGI (MALME-3M melanoma),GI50 (MDA-MB-231 breast),TGI (MDA-MB-231 breast),GI50 (OVCAR-4 ovarian),TGI (OVCAR-4 ovarian) [µM],GI50 (OVCAR-5 ovarian),TGI (OVCAR-5 ovarian) [µM],GI50 (RXF 393 renal),TGI (RXF 393 renal),GI50 (SF-268 CNS),TGI (SF-268 CNS) [µM],GI50 (SK-OV-3 ovarian),TGI (SK-OV-3 ovarian) [µM],GI50 (UACC-62 melanoma),TGI (UACC-62 melanoma) [µM],GI50 (UO-31 renal),TGI (UO-31 renal)
CCc1ccc(NC(=O)COC(=O)c2cc([N+](=O)[O-])ccc2Sc2nnnn2C)cc1,6.76 µM,20.2,24.2 µM,> 100 µM,23.6 µM,> 100 µM,12.9 µM,26.9,17.2 µM,76,24 µM,62 µM,14.5 µM,70.7,27.1 µM,> 100,15.2 µM,48,24.9 µM,> 100 µM
Cn1cc(C2=C(c3cccc(OCC(O)CO)c3)C(=O)NC2=O)c2ccccc21 (stereo not given),> 25 µM,> 25,> 25 µM,> 25 µM,> 25 µM,> 25 µM,> 25 µM,> 25,> 25 µM,> 25,> 25 µM,> 25 µM,> 25 µM,> 25,> 25 µM,> 25,> 25 µM,> 25,> 25 µM,> 25 µM
Cc1ccc(CNc2c3ccccc3nc3cc(NC(=O)CCN4CCCC4)ccc23)cc1,0.39 µM,1.42,1.51 µM,2.92 µM,0.602 µM,1.98 µM,0.569 µM,2.02,0.793 µM,2.1,0.414 µM,1.57 µM,0.819 µM,2.31,1.1 µM,2.79,1.4 µM,2.74,1.25 µM,2.54 µM
Nc1nc(Nc2ccc(C3CCC(N4CCOCC4)CC3)cc2)nn1-c1ccccn1 (stereo not given),2.92 µM,20.7,5.58 µM,> 46 µM,5.34 µM,> 100 µM,12.4 µM,> 84.9,4.17 µM,> 100,2.03 µM,5.77 µM,2.93 µM,> 100,18.1 µM,> 100,7.27 µM,> 88.3,2.48 µM,> 33.7 µM
CN1CC[C@@H](c2c(O)cc(O)c3c(=O)cc(-c4ccccc4Cl)oc23)[C@@H]1CO,0.2 µM,> 10,0.361 µM,1.58 µM,0.292 µM,> 10 µM,0.709 µM,> 9.29,0.287 µM,> 10,0.192 µM,0.43 µM,0.305 µM,1.38,1.4 µM,9.91,0.184 µM,0.578,0.268 µM,> 2.99 µM
CC1(C)C2C=CC1(C)C1(CC2)OCCO1 (stereo not given),–,> 100,–,> 100 µM,–,> 100 µM,–,> 100,–,> 100,–,> 100 µM,–,> 100,–,> 100,–,> 100,–,> 100 µM
CS[C@]12C(=O)C[C@@]3(C)[C@@H](CC[C@]3(O)C(=O)CO)[C@@H]1CCC1=CC(=O)CC[C@@]12C,–,> 100,–,> 100 µM,–,> 100 µM,–,> 100,–,> 100,–,> 100 µM,–,> 100,–,> 100,–,> 100,–,> 100 µM
Cc1ccc(S(=O)(=O)Nc2cccc3[nH]c(C(F)(F)F)nc23)cc1,0.414 µM,> 100,1.95 µM,37.3 µM,1.61 µM,22.5 µM,1.54 µM,80.9,1.85 µM,> 74.1,1.17 µM,27.1 µM,1.87 µM,54.6,1.34 µM,25,0.62 µM,> 54,1.3 µM,> 57.5 µM
O=C1c2ccccc2-c2c1c1ccccc1c(=O)n2CCN1CCOCC1,36 µM,> 100,> 100 µM,> 100 µM,> 100 µM,> 100 µM,> 100 µM,> 100,> 100 µM,> 100,49 µM,> 100 µM,> 100 µM,> 100,> 100 µM,> 100,29.4 µM,> 100,64.4 µM,> 100 µM
Cc1c2c(nn1C)CSCc1cc(n(C)n1)CSc1cc(c3ccccc3c1)OCCCc1c(C(=O)O)n(C)c3c-2c(Cl)ccc13,3.53 µM,13,2.84 µM,9.87 µM,5.32 µM,18.2 µM,6.76 µM,22.9,5.11 µM,17.6,1.29 µM,3.63 µM,4.42 µM,16.3,10.6 µM,22.7,0.456 µM,2.35,5.07 µM,17.8 µM
O=C(NC[C@H](O)CO)c1ccncc1Nc1ccc(I)cc1F,0.0556 µM and 0.104 µM,> 100,0.00242 µM and < 0.01 µM,0.0972 µM and < 0.0162 µM,0.154 µM and 0.348 µM,> 10 µM and 46.7 µM,> 7.46 µM and 10.6 µM,> 100,0.0104 µM and 0.0151 µM,> 100,0.678 µM and 1.6 µM,> 10 µM and 29.1 µM,> 10 µM and 29.9 µM,> 100,> 4.46 µM and 26.2 µM,> 100,0.00248 µM and < 0.01 µM,0.0292,0.2 µM and 0.988 µM,> 10 µM and 20.3 µM
CCOc1ccccc1N=Nc1c(C)[nH]n(-c2nc(-c3ccccc3)cs2)c1=O,52.3 µM,> 100,60.9 µM,> 100 µM,44 µM,> 100 µM,25 µM,> 84.5,> 100 µM,> 100,16.4 µM,38.4 µM,35.4 µM,> 100,38.9 µM,> 100,35.6 µM,> 100,> 65.1 µM,> 100 µM
COc1c2c(nc3ccccc13)-c1cc3c(c(=O)n1C2)COC(=O)C3(O)CC(=O)N1CCOCC1 (stereo not given),–,38.5,–,> 100 µM,–,> 100 µM,–,> 100,–,63.1,–,26.9 µM,–,26.7,–,68.3,–,8.35,–,68.9 µM
Nc1[nH]nc2nc(-c3cccs3)cc(C(F)(F)F)c12,> 17.9 µM,> 25,> 25 µM,> 25 µM,> 25 µM,> 25 µM,> 25 µM,> 25,> 25 µM,> 25,18.9 µM,> 25 µM,> 25 µM,> 25,> 25 µM,> 25,> 25 µM,> 25,> 25 µM,> 25 µM
O=C(NN1C(=O)CSC12CCCC2)c1[nH]c2ccc(Br)cc2c1-c1ccccc1,26.7 µM,> 100,38.3 µM,> 100 µM,32.5 µM,> 100 µM,24.7 µM,> 100,> 100 µM,> 100,31.2 µM,> 100 µM,52.1 µM,> 100,> 100 µM,> 100,19.7 µM,> 100,59.1 µM,> 100 µM
CC#CC(=O)SCCNC(=O)CC,–,> 10,–,> 10 µM,–,> 10 µM,–,> 10,–,> 10,–,> 9.55 µM,–,> 10,–,> 10,–,> 10,–,> 10 µM
C1CN(SSN2CCOCC2)CCO1,20 µM,40.6,53.6 µM,> 100 µM,92.8 µM,> 100 µM,39.6 µM,> 100,39 µM,> 100,21.8 µM,41.4 µM,47.6 µM,> 100,> 100 µM,> 100,58.7 µM,> 100,49.5 µM,> 100 µM
